Data reported in patent US20090124501A1, “Silicic Acid Componenet Supplying Agent For Algae And Method For Supplying Silicic Acid Component To Algae” (Incorporated Administrative Agency Fisheries Research Agency, priority 2006, published 2009).

Tested on: Chaetoceros
Test: Pigment and chlorophyll a content of Chaetoceros cultured for 20 days
Type: cell-based
Description: With respect to Chaetoceros cultured for 20 days after the silicic acid hydrogel and sodium metasilicate were added in an experimental plot and a control plot, respectively, under the same conditions as in Embodiment 3, difference in pigment and chlorophyll a content were examined. 20 mL of culture solution was collected from each of the experimental plot and the control plot, each cell density was measured, and only the cells were collected by suction filtration with a GF/F filter having a diameter of 47 mm (Whatman International Ltd.). Chlorophyll a was measured by a fluorescence method with a fluorometer (Turner Designs, Inc.) or by a measurement method with a spectrophotometer (Shimadzu Corporation).

O=[Si]([O-])[O-].[Na+].[Na+] [sodium metasilicate]
chlorophyll a content (Chaetoceros cultured for 20 days): 0.12-0.16 pg/cell | color of Chaetoceros collected on the filters, visual observation (after culturing for 20 days, GF/F filter): light brown color
